Source: US20240150301A1, “METHODS OF MODULATING ANDROGEN RECEPTOR CONDENSATES” (ETERN BIOPHARMA (SHANGHAI) CO., LTD., priority 2021, published 2024)
Entries after “also recorded” stand apart in the source; their conditions may differ.

Key:
LNCaP cells = experiment: Cell proliferation assay (CellTiter-Glo), LNCaP; format: cell-based; conditions: Homo sapiens, 96 h, 0.2 nM DHT, 4 days, read-out: LNCaP IC50 AR-positive (cell proliferation)
Description: (§1) To evaluate the effect of exemplary compounds on proliferation of AR/AR-V7-dependent prostate cancer cells, cell viability assay was performed in LNCaP (AR-positive), 22Rv1 (AR-positive; AR-V7 positive), VCaP (AR-positive; AR-V7 positive), and DU145 (AR-negative) cells, respectively.
(§2) LNCaP cells were seeded in charcoal stripped FBS/phenol red-free RPMI medium in 96-well plates for 24 h before pretreating for 1 h with test compounds prior to addition of 0.2 nM DHT for 4 days. 22Rv1 or VCaP cells were cultured in charcoal stripped FBS/phenol red-free RPMI medium for 24 h before addition of test compounds for 4 days. DU145 cells were seeded in complete medium for 24 h before addition of test compounds for 4 days. Cell proliferation was measured with CellTiter-Glo® Luminescent Cell Viability Assay (Promega). In LNCaP cells, DHT-dependent cell growth is calculated by measuring the difference between vehicle control (DMSO) cells treated with or without 0.2 nM DHT. The IC50 values were determined using the four parameter fit via GraphPad Prism graphing software.

VCaP cells = experiment: Cell proliferation assay (CellTiter-Glo), VCaP; format: cell-based; conditions: Homo sapiens, 96 h, 4 days, read-out: VCaP IC50 AR-positive, AR-V7 positive (cell proliferation)
Description: as §1, §2

AR V7 [1] = target: T1, AR V7 (Homo sapiens, UniProt P10275); experiment: ARE-luciferase reporter assay in HEK293T cells cotransfected with AR-V7; format: cell-based; set-up: host or cells: HEK293T; conditions: HEK293T cotransfected with AR-V7, hormone-starved, 24 h; read-out: HEK293T(V7) ARE-luc IC50
T1 sequence (P10275 1-644 isoform P10275-3): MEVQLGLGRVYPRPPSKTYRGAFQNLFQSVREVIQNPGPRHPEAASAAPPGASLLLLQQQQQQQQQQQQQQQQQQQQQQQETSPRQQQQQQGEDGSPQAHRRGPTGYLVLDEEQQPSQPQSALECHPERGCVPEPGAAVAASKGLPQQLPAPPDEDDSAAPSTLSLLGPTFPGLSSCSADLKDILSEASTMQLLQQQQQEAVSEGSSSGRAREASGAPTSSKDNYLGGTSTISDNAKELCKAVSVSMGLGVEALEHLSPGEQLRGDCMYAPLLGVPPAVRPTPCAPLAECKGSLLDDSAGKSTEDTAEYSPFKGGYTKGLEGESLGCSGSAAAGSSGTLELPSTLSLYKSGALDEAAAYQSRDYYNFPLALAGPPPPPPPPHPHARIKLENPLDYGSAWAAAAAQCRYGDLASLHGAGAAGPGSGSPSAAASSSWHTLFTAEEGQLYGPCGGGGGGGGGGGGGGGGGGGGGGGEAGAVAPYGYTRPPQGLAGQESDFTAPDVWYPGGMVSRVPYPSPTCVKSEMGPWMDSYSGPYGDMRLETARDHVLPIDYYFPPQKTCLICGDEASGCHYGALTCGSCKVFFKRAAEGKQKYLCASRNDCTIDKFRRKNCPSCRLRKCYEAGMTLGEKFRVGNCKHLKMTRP
Description: (§3) The ARE-luciferase reporter plasmid contains functional AREs (androgen response elements) to which AR binds in response to androgen to induce luciferase activity. LNCaP (Cobioer) cells were transiently transfected with the ARE-luciferase reporter in charcoal stripped FBS/phenol red-free RPMI medium prior to treatment for 24 hours. Then DMSO or test compounds with serial diluted concentrations were added one hour prior to the addition of DHT(1 nM). After 24 h of incubation with DHT, cells were lysed and luciferase activity was assayed using the ONE-Glo™ Luciferase Assay System (Promega) and measured using EnVision Multimode Plate Reader, according to manufacturer's instructions. Values were normalized to cell viability determined by CellTiter-Glo® Luminescent Cell Viability Assay Kit (Promega). […] GraphPad Prism graphing software was used to calculate IC50 values.
(§4) To evaluate the transcriptional activity of AR-V7, HEK293T(Cobioer) cells were transiently cotransfected with an expression vector for AR-V7 and the ARE-luciferase reporter in hormone-starved conditions. For 22Rv1(Cobioer) prostate cancer cell line, which expresses endogenous AR-V7, ARE-luciferase reporter was transiently transfected in hormone-starved conditions. 24 h after transfection, DMSO or test compounds with serial diluted concentrations were added for additional 24 h incubation. Reporter activity was detected and normalized by cell viability as described above. Treatments were normalized to DMSO control activity, and IC50 values were further determined via GraphPad Prism graphing software.

AR = target: T2, AR (Homo sapiens, UniProt P10275); experiment: ARE-luciferase reporter assay in LNCaP cells (DHT-induced); format: cell-based; conditions: 1 nM DHT, 24 h, normalized to cell viability, read-out: LNCaP ARE-luc IC50
T2 sequence (P10275 1-920 T878A): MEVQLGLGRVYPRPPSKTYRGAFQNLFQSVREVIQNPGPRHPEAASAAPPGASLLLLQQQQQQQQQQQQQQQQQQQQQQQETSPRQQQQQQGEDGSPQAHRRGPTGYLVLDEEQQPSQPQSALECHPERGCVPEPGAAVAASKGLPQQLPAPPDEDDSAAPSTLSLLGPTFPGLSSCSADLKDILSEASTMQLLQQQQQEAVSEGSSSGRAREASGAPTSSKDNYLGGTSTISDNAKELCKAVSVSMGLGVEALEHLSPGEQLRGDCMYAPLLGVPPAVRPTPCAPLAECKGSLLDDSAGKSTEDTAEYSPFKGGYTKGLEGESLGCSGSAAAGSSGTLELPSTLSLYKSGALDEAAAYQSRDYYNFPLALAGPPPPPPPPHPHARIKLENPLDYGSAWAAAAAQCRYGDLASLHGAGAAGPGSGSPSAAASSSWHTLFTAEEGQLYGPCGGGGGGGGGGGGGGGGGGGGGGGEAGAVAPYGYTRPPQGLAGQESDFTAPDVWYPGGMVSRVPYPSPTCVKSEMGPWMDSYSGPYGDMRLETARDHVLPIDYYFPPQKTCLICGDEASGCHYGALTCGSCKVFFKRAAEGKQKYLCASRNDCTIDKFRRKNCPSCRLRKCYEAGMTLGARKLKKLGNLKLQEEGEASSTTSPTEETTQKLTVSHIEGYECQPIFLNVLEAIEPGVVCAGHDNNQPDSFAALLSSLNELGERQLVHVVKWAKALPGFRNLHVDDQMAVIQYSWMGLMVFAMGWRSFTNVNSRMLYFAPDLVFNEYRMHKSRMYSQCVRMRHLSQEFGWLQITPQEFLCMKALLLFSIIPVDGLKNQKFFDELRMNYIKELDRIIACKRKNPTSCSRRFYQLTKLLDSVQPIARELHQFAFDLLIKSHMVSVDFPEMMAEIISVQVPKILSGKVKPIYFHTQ
Description: as §3

22Rv1 cells = experiment: Cell proliferation assay (CellTiter-Glo), 22Rv1; format: cell-based; conditions: Homo sapiens, 22Rv1, 96 h; 4 days; read-out: 22Rv1 IC50 AR-positive; AR-V7 positive (cell proliferation)
Description: as §1, §2

[2] = tested on: AR or AR-V7 downstream target genes; experiment: AR/AR-V7 target gene qPCR assay in 22Rv1 cells; format: cell-based, human; conditions: 22Rv1, 48 h, RT-qPCR
Description: To evaluate the effect of exemplary compounds on mRNA expression of AR or AR-V7 downstream target genes, real-time quantitative PCR measurements were performed in prostate cancer cell line 22Rv1 expressing both AR and AR-V7.
22Rv1 cells were cultured in charcoal stripped FBS/phenol red-free RPMI medium for 24 h, and then treated with DMSO or test compounds for additional 48 h prior to RT-qPCR. Briefly, RNA was isolated from cells using RNeasy Mini Kit (Qiagen) following the manufacturer's protocol. RNA was reverse transcribed and subjected to qPCR using PowerUp™ SYBR™ Green Master Mix (Applied Biosystems). The relative quantity of the target genes was calculated using the ΔΔCt method by comparing Ct of the target genes and mean Ct of the housekeeping gene GAPDH.

AR V7 [3] = target: T1, AR V7; experiment: ARE-luciferase reporter assay in 22Rv1 cells (endogenous AR-V7); format: cell-based; set-up: 22Rv1(Cobioer) prostate cancer cell line, which expresses endogenous AR-V7; host or cells: 22Rv1; conditions: 22Rv1, hormone-starved, 24 h; read-out: 22Rv1 ARE-luc IC50
Description: as §3, §4

DU145 cells = experiment: Cell proliferation assay (CellTiter-Glo), DU145; format: cell-based; conditions: Homo sapiens, DU-145, 96 h; 4 days; read-out: DU145 IC50 AR-negative (cell proliferation)
Description: as §1, §2

[4] = tested on: AF-1 recombinant protein (human AR-NTD); experiment: AF-1 STD NMR binding assay; conditions: 25 μM AF-1, 250 μM compound
Description: Binding of the exemplary compounds to human AR-NTD was performed using STD […] Nuclear Magnetic Resonance (STD NMR) analysis with purified AF-1 recombinant protein.
Binding of the exemplary compounds to human AR-NTD was performed using STD […] Nuclear Magnetic Resonance (STD NMR) analysis with purified Tau-5AF-1 recombinant protein. All NMR spectroscopy experiments were performed on a Bruker Avance III 600 MHz spectrometer. NMR samples contain 25 μM AF-1 and 250 μM compound, and were diluted by PBS (pH 7.4, 60% D20) buffer to 500 μL. For the STD experiments, the standard Bruker stddiffgp19.3 pulse sequence was used with a saturation time of 2 s and a spectral width of 16 ppm with 128 scans. The on-resonance frequency was set to −0.4 ppm, while the off-resonance frequency was set to 33 ppm. Appropriate blank experiments, in the absence of protein or compound, were performed to test the lack of direct saturation to the compound protons.

| SMILES | IC50 (LNCaP cells) [µM] | IC50 (VCaP cells) [µM] | IC50 (AR V7 [1]) [µM] | IC50 (AR) [µM] | IC50 (22Rv1 cells) [µM] | mRNA expression of target genes of either AR or AR-V7 [2] | IC50 (AR V7 [3]) [µM] | IC50 (DU145 cells) [µM] | binding to AF-1 (STD difference spectrum) [4] |
| --- | --- | --- | --- | --- | --- | --- | --- | --- | --- |
| CC(C)(c1ccc(OCc2ccnc(N=S3(=O)CCCC3)n2)cc1)c1cc(Cl)c(OCCCl)c(C#N)c1 [Compound 2, 3-chloro-2-(2-chloroethoxy)-5-(2-(4-((2-((1-oxidotetrahydro-1λ^6-thiophen-1-ylidene)amino)pyrimidin-4-yl)methoxy)phenyl)propan-2-yl) benzonitrile] | 0.52 | 8.81 | 2.3 | 2.82 | 2.75 | inhibited mRNA expression | 4.4 | > 20 |  |
| CC(C)(c1ccc(OCc2ccnc(N=S3(=O)CCNCC3)n2)cc1)c1cc(Cl)c(OCCO)c(C#N)c1 [Compound 62, 3-chloro-2-(2-hydroxyethoxy)-5-(2-(4-((2-((1-oxido-1λ^6-thiomorpholin-1-ylidene)amino)pyrimidin-4-yl)methoxy)phenyl)propan-2-yl)benzonitrile] |  |  |  |  |  |  |  |  | confirmed the binding; also recorded: binds to AF-1 |
